The values below are quoted from earlier work in US20090285878A1, “Compositions and methods for stabilizing liposomal drug formulations” (Tekmira Pharmaceuticals Corporation, priority 2004, published 2009).

The structures appear in SMILES notation.

Take `CC[C@@]1(O)C(=O)OCc2c1cc1n(c2=O)Cc2cc3c(CN(C)C)c(O)ccc3nc2-1` [Topotecan]: the Lactone hydrolyzed result (above pH 9) is given as “more than 95%”. In addition, under “below pH 4”, the “Open (carboxylate) form of lactone ring” value is given as “no open form is present”.
